The source of these data is paper PMC10541198, “Specific quinone reductase 2 inhibitors reduce metabolic burden and reverse Alzheimer’s disease phenotype in mice” (The Journal of Clinical Investigation, 2023).

The assay concerns 4-HNE. Kind of assay: Immunoblot of 4-HNE 3 hours after CA1 microinjection. It is filed as in vivo, mouse. As to the method:
In order to evaluate the efficacy of some of the leading QR2is in vivo, we carried out double-blind experiments using 2 different modalities (Supplemental Methods), measuring memory that is dependent on different brain areas. First, cortical memory was tested using incidental novel taste learning (see Methods), in which an unfamiliar, but palatable and safe, taste is given for the first time, and the memory for this newly learned taste is then assessed 2 days later. This is done by measuring the volume of the taste consumed upon subsequent exposure to it ([32]) (Figure 4A). […] Next, hippocampal-dependent learning was evaluated using delay fear conditioning (DFC; see Methods) ([33]). Mice were cannulated to the CA1 region of the hippocampus and were microinjected with YB-537 (1 μL of 5 μM, Figure 4, D and H) or vehicle. […] In order to evaluate any possible effect of acute QR2i microinjection on metabolic stress in the mouse brain, ISR activation was measured by quantifying total and phosphorylated eukaryotic initiation factor 2 α (eIF2α) levels (Supplemental Figure 3A) and lipid peroxidation product, 4-hydroxynonenal (4-HNE; Supplemental Figure 3B), by immunoblot 3 hours after the injection. […]
Background: Immunoblotting shows a protein as a band on a membrane.

Several values for one entry are separate records, joined by “and”; a condition that tells them apart may be missing. Identical values can stand only once.

For the compound `Cc1ccc(-c2cn3cccc(C)c3n2)cc1S(=O)(=O)N1CCNCC1` [YB-537], the 4-HNE levels result (3 hours after microinjection in the mouse hippocampus) was “insignificant reduction”. Also, the “Sup. Fig. 3B, immunoblot signal” value (individual animals) is 1.944 and 1.965 and 2.545 and 1.185 and 0.887 and 2.092 and 2.161.
